# According to patent US9242987B2, “Heterocyclyl pyrazolopyrimidine analogues as JAK inhibitors” (Cellzome Limited, priority 2009, dated 2016):
# How the values were obtained:
# [1] = biological target: T1, JAK2 (Homo sapiens, UniProt O60674); test: Kinobeads assay, JAK2; type: binding; details: mixed Molt4/Ramos cell lysate, dot blot detection
# T1 construct: endogenous in cells; host or cells: Mixed Molt4/Ramos lysate (1:2)
# In short: (§1)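 Lysate from Molt4 and Ramos cells combined 1:2 at 10 mg/mL total protein met test compound and an aminopyrido-pyrimidine affinity matrix for 3 h in the cold. Captured JAK2 and JAK3, after elution, were measured by specific-antibody dot blot on an infrared system; dose-response curves yielded IC50.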
# [2] = biological target: T2, JAK3 (Homo sapiens, UniProt P52333); test: Kinobeads assay, JAK3; type: binding; details: mixed Molt4/Ramos cell lysate, dot blot detection
# T2 construct: endogenous in cells; host or cells: Mixed Molt4/Ramos lysate (1:2)
# T2 sequence (P52333 1-1124): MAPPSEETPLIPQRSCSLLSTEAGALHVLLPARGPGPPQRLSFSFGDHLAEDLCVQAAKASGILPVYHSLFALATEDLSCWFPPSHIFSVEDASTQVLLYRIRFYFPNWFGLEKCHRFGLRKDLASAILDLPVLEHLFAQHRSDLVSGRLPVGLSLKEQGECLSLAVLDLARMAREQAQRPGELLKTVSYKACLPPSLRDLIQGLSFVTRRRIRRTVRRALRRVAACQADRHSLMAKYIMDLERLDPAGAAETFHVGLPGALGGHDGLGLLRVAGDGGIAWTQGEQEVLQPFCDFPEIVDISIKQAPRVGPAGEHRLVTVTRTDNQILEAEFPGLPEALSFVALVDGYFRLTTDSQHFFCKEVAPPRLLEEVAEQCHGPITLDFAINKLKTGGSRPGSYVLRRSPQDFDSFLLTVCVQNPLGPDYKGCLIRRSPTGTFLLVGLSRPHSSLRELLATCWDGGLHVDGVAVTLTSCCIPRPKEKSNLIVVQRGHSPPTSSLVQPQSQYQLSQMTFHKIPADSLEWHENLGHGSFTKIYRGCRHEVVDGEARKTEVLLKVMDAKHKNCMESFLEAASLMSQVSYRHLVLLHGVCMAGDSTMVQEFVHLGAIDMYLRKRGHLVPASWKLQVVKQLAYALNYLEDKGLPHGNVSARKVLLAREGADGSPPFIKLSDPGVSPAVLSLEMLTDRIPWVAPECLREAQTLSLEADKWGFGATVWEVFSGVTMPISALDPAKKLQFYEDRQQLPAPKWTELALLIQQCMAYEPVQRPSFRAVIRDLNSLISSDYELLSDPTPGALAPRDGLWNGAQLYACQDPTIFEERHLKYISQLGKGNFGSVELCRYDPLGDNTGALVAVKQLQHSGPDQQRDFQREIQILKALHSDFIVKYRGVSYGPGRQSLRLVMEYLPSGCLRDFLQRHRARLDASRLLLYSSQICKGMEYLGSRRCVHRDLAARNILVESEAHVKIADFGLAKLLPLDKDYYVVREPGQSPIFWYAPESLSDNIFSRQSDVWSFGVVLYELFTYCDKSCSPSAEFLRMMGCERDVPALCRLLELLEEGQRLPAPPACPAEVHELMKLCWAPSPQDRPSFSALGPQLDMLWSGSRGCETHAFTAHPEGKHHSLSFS
# In short: as §1
# T1 sequence (O60674 whole entry): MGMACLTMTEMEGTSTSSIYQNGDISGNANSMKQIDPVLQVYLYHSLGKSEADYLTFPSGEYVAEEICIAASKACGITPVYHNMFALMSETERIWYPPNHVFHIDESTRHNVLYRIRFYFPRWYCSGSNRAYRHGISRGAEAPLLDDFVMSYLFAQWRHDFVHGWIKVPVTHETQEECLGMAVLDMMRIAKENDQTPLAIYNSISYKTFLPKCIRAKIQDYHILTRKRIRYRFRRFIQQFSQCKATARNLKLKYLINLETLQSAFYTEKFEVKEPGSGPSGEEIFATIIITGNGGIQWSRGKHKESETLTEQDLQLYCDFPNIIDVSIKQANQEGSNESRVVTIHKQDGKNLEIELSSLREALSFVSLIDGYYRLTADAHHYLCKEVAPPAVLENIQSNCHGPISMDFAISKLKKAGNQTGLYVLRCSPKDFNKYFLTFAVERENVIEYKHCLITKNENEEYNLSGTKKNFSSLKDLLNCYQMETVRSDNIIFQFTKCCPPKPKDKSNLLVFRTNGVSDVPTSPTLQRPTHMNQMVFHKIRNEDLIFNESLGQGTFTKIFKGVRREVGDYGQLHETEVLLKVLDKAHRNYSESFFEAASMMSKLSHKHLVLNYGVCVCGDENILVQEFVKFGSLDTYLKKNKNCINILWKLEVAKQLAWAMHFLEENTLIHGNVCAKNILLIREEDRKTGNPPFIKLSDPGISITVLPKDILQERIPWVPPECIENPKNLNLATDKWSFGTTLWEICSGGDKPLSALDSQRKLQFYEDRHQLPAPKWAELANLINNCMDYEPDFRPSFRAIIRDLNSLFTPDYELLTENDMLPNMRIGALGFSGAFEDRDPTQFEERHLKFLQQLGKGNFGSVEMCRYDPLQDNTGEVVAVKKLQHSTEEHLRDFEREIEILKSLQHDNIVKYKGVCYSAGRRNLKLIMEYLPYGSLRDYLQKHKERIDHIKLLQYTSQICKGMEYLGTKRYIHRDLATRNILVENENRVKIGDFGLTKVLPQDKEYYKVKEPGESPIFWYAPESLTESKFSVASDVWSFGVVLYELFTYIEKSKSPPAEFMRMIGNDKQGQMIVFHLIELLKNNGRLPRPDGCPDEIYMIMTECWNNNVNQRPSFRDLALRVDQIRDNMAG
IC50 [1] [nM],IC50 [2] [nM],SMILES
1000 to 10000,< 100,"COc1ccc(F)c(Cn2ncc3cnc(Nc4cnn(C)c4)nc32)c1 [Example 94, 1-(2-Fluoro-5-methoxybenzyl)-N-(1-methyl-1H-pyrazol-4-yl)-1H-pyrazolo[3,4-d]pyrimidin-6-amine]"
100 to 1000,< 100,"Cn1cc(Nc2ncc3cnn(Cc4ccccc4NS(C)(=O)=O)c3n2)cn1 [Example 75, N-(2-((6-((1-Methyl-1H-pyrazol-4-yl)amino)-1H-pyrazolo[3,4-d]pyrimidin-1-yl)methyl)phenyl)methanesulfonamide]"
100 to 1000,< 100,"Cn1cc(Nc2ncc3cnn(Cc4c(F)c(F)cc(F)c4F)c3n2)cn1 [Example 163, N-(1-Methyl-1H-pyrazol-4-yl)-1-(2,3,5,6-tetrafluorobenzyl)-1H-pyrazolo[3,4-d]pyrimidin-6-amine]"
1000 to 10000,100 to 1000,"Cn1cc(Nc2ncc3cnn(-c4ccc(F)cc4)c3n2)cn1 [Example 56, 1-(4-Fluorophenyl)-N-(1-methyl-1H-pyrazol-4-yl)-1H-pyrazolo[3,4-d]pyrimidin-6-amine]"
1000 to 10000,< 100,"Cn1cc(Nc2ncc3cnn(-c4ccc(S(N)(=O)=O)cc4)c3n2)cn1 [Example 35, 4-(6-(1-Methyl-1H-pyrazol-4-ylamino)-1H-pyrazolo[3,4-d]pyrimidin-1-yl)benzenesulfonamide]"
≥ 10000,100 to 1000,"COCCCOc1cccc(Cn2ncc3cnc(Nc4cnn(C)c4)nc32)c1 [Example 169, 1-(3-(3-Methoxypropoxy)benzyl)-N-(1-methyl-1H-pyrazol-4-yl)-1H-pyrazolo[3,4-d]pyrimidin-6-amine]"
1000 to 10000,100 to 1000,"Cn1cc(Nc2ncc3cnn(Cc4ccccc4C(=O)O)c3n2)cn1 [Example 41, 2-((6-(1-Methyl-1H-pyrazol-4-ylamino)-1H-pyrazolo[3,4-d]pyrimidin-1-yl)methyl)benzoic acid]"
1000 to 10000,< 100,"Cn1cc(Nc2ncc3cnn(Cc4ccccc4OC(F)(F)F)c3n2)cn1 [Example 85, N-(1-Methyl-1H-pyrazol-4-yl)-1-(2-(trifluoromethoxy)benzyl)-1H-pyrazolo[3,4-d]pyrimidin-6-amine]"
≥ 10000,100 to 1000,"COCCn1cc(Nc2ncc3cnn(Cc4ccccc4C#N)c3n2)c(C)n1 [Example 23, 2-((6-(1-(2-methoxyethyl)-3-methyl-1H-pyrazol-4-ylamino)-1H-pyrazolo[3,4-d]pyrimidin-1-yl)methyl)benzonitrile]"
< 100,< 100,"Cn1cc(Nc2ncc3cnn(Cc4cc(F)ccc4F)c3n2)cn1 [Example 30, 1-(2,5-Difluorobenzyl)-N-(1-methyl-1H-pyrazol-4-yl)-1H-pyrazolo[3,4-d]pyrimidin-6-amine]"
1000 to 10000,< 100,"Cn1cc(Nc2ncc3cnn(Cc4ccccc4Cl)c3n2)cn1 [Example 27, 1-(2-Chlorobenzyl)-N-(1-methyl-1H-pyrazol-4-yl)-1H-pyrazolo[3,4-d]pyrimidin-6-amine]"
< 100,< 100,"Cn1cc(Nc2ncc3cnn(Cc4cc(F)cc(F)c4F)c3n2)cn1 [Example 158, N-(1-Methyl-1H-pyrazol-4-yl)-1-(2,3,5-trifluorobenzyl)-1H-pyrazolo[3,4-d]pyrimidin-6-amine]"
1000 to 10000,< 100,"Cn1cc(Nc2ncc3cnn(Cc4cccc(NS(C)(=O)=O)c4)c3n2)cn1 [Example 140, N-(3-((6-((1-Methyl-1H-pyrazol-4-yl)amino)-1H-pyrazolo[3,4-d]pyrimidin-1-yl)methyl)phenyl)methanesulfonamide]"
1000 to 10000,< 100,"CCn1cc(Nc2ncc3cnn(Cc4ccccc4C#N)c3n2)cn1 [Example 11, 2-((6-(1-Ethyl-1H-pyrazol-4-ylamino)-1H-pyrazolo[3,4-d]pyrimidin-1-yl)methyl)benzonitrile]"
1000 to 10000,< 100,"Cn1cc(Nc2ncc3cnn(Cc4ccccc4C#N)c3n2)cn1 [Example 1, 2-((6-(1-Methyl-1H-pyrazol-4-ylamino)-1H-pyrazolo[3,4-d]pyrimidin-1-yl)methyl)benzonitrile]"
1000 to 10000,100 to 1000,"Cn1cc(Nc2ncc3cnn(CCc4cccc(F)c4)c3n2)cn1 [Example 81, 1-(3-Fluorophenethyl)-N-(1-methyl-1H-pyrazol-4-yl)-1H-pyrazolo[3,4-d]pyrimidin-6-amine]"
≥ 10000,100 to 1000,"Cc1c(Nc2ncc3cnn(Cc4ccccc4)c3n2)cnn1C [Example 109, 1-Benzyl-N-(1,5-dimethyl-1H-pyrazol-4-yl)-1H-pyrazolo[3,4-d]pyrimidin-6-amine]"
1000 to 10000,< 100,"Fc1ccccc1Cn1ncc2cnc(Nc3cnn(CCN4CCCCC4)c3)nc21 [Example 143, 1-(2-Fluorobenzyl)-N-(1-(2-(piperidin-1-yl)ethyl)-1H-pyrazol-4-yl)-1H-pyrazolo[3,4-d]pyrimidin-6-amine]"
1000 to 10000,< 100,"COCCOc1cccc(Cn2ncc3cnc(Nc4cnn(CCCN(C)C)c4)nc32)c1 [Example 184, N-(1-(3-(Dimethylamino)propyl)-1H-pyrazol-4-yl)-1-(3-(2-methoxyethoxy)benzyl)-1H-pyrazolo[3,4-d]pyrimidin-6-amine]"
100 to 1000,< 100,"OCCn1cc(Nc2ncc3cnn(Cc4ccccc4F)c3n2)cn1 [Example 34, 2-(4-(1-(2-Fluorobenzyl)-1H-pyrazolo[3,4-d]pyrimidin-6-ylamino)-1H-pyrazol-1-yl)ethanol]"
≥ 10000,< 100,COCCNC(=O)c1cccc(Cn2ncc3cnc(Nc4cnn(C)c4)nc32)c1 [Example 200]
100 to 1000,< 100,"Cc1nn(CC(F)F)cc1Nc1ncc2cnn(Cc3cc(F)ccc3C#N)c2n1 [Example 151, 2-((6-((1-(2,2-Difluoroethyl)-3-methyl-1H-pyrazol-4-yl)amino)-1H-pyrazolo[3,4-d]pyrimidin-1-yl)methyl)-4-fluorobenzonitrile]"
≥ 10000,100 to 1000,"Cc1cc(Nc2ncc3cnn(Cc4ccccc4C#N)c3n2)nn1C [Example 9, 2-((6-(1,5-Dimethyl-1H-pyrazol-3-ylamino)-1H-pyrazolo[3,4-d]pyrimidin-1-yl)methyl)benzonitrile]"
100 to 1000,< 100,"Cn1cc(Nc2ncc3cnn(Cc4c(F)ccc(F)c4F)c3n2)cn1 [Example 98, N-(1-Methyl-1H-pyrazol-4-yl)-1-(2,3,6-trifluorobenzyl)-1H-pyrazolo[3,4-d]pyrimidin-6-amine]"
1000 to 10000,< 100,Cn1cc(Nc2ncc3cnn(Cc4cccc(OCC(N)=O)c4)c3n2)cn1 [Example 209]
1000 to 10000,< 100,"OCCn1cc(Nc2ncc3cnn(Cc4ccccc4C4CC4)c3n2)cn1 [Example 260, 2-(4-((1-(2-Cyclopropylbenzyl)-1H-pyrazolo[3,4-d]pyrimidin-6-yl)amino)-1H-pyrazol-1-yl)ethanol]"
1000 to 10000,< 100,"CC(C)S(=O)(=O)Nc1ccccc1Cn1ncc2cnc(Nc3cnn(C)c3)nc21 [Example 126, N-(2-((6-((1-Methyl-1H-pyrazol-4-yl)amino)-1H-pyrazolo[3,4-d]pyrimidin-1-yl)methyl)phenyl)propane-2-sulfonamide]"
